{"source": "patent US20150105252A1", "about": "“SUBSTITUTED PYRAZOLES AS HERBICIDES” (E I DU PONT DE NEMOURS AND COMPANY, priority 2013, published 2015)", "key": {"rice": {"test_system": "rice", "experiment": "Test B flood", "assay_type": "in vivo, Oryza sativa", "conditions": "250 g ai/ha, visual rating on 0 to 100 scale (0 no effect, 100 complete control), 13 to 15 days", "summary_of_the_method": "(§1)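 Paddy-water application: seedlings at 2-leaf stage, flood depth 3 cm maintained for the test duration. Evaluation after 13–15 days in the greenhouse by eye relative to controls; 0–100 scale.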"}, "lambsquarters": {"test_system": "lambsquarters", "experiment": "Test C postemergence", "assay_type": "in vivo, Chenopodium album", "conditions": "for Plant response rating (scale of 0 to 100 where 0 is no effect and 100 is complete control), Lambsquarters: 31 g ai/ha, visually evaluated after 13 to 15 days; for Lambsquarters plant response rating / Plant response rating, Lambsquarters: postemergence; for Lambsquarters plant response rating: 62 g ai/ha, scale 0 to 100", "summary_of_the_method": "(§2)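 Postemergence values come from plants sprayed at the 1- to 4-leaf stage (2–18 cm) in peat moss–vermiculite medium; preemergence values from seeds treated in a loam–sand blend. Both evaluated visually against controls after 13–15 greenhouse days, scale 0–100.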"}, "wheat [1]": {"test_system": "wheat", "experiment": "Test C preemergence", "assay_type": "in vivo, Triticum aestivum", "conditions": "preemergence", "summary_of_the_method": "as §2"}, "ragweed": {"test_system": "ragweed", "experiment": "Test C preemergence", "assay_type": "in vivo, Ambrosia elation", "summary_of_the_method": "as §2"}, "galium": {"test_system": "galium", "experiment": "Test C preemergence", "assay_type": "in vivo, Galium aparine", "summary_of_the_method": "as §2"}, "wheat [2]": {"test_system": "wheat", "experiment": "Test A postemergence", "assay_type": "in vivo, Triticum aestivum", "summary_of_the_method": "(§3)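 Greenhouse test in loam soil/sand blend; compounds formulated in non-phytotoxic solvent with surfactant, applied as preemergence directed soil spray or postemergence to plants 2–10 cm tall at one- to two-leaf stage. Injury rated visually versus untreated controls after approximately 10 days on a 0 (no effect) to 100 (complete control) scale.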"}, "sedge, umbrella": {"test_system": "sedge, umbrella", "experiment": "Test B flood", "assay_type": "in vivo, Cyperus difformis", "conditions": "250 g ai/ha, visual rating on 0 to 100 scale (0 no effect, 100 complete control), 13 to 15 days", "summary_of_the_method": "as §1"}, "corn": {"test_system": "corn", "experiment": "Test C preemergence", "assay_type": "in vivo, Zea mays", "summary_of_the_method": "as §2"}, "crabgrass, large": {"test_system": "crabgrass, large", "experiment": "Test C postemergence", "assay_type": "in vivo, Digitaria sanguinalis", "conditions": "for Plant response rating (scale of 0 to 100 where 0 is no effect and 100 is complete control), Crabgrass, Large: 31 g ai/ha, visually evaluated after 13 to 15 days; for Crabgrass, Large plant response rating / Plant response rating, Crabgrass, Large: postemergence; for Crabgrass, Large plant response rating: 62 g ai/ha, scale 0 to 100", "summary_of_the_method": "as §2"}, "ryegrass, Italian": {"test_system": "ryegrass, Italian", "experiment": "Test C postemergence", "assay_type": "in vivo, Lolium multiflorum", "summary_of_the_method": "as §2"}, "kochia": {"test_system": "kochia", "experiment": "Test C postemergence", "assay_type": "in vivo, Kochia scoparia", "conditions": "for Plant response rating (scale of 0 to 100 where 0 is no effect and 100 is complete control), Kochia: 31 g ai/ha, visually evaluated after 13 to 15 days; for Kochia plant response rating / Plant response rating, Kochia: postemergence; for Kochia plant response rating: 62 g ai/ha, scale 0 to 100", "summary_of_the_method": "as §2"}, "pigweed": {"test_system": "pigweed", "experiment": "Test A preemergence", "assay_type": "in vivo, Amaranthus retroflexus", "summary_of_the_method": "as §3"}, "[3]": {"conditions": "250 g ai/ha, scale 0 to 100 (0 no effect, 100 complete control)"}, "[4]": {"conditions": "125 g ai/ha, scale 0 to 100, 0 no effect, 100 complete control"}, "[5]": {"conditions": "preemergence, 31 g ai/ha, visual rating, scale 0 to 100 (0 no effect, 100 complete control), 13 to 15 days"}, "[6]": {"conditions": "preemergence, 62 g ai/ha, scale 0 to 100 (0 no effect, 100 complete control), 13 to 15 days"}, "[7]": {"conditions": "preemergence, 125 g ai/ha, 13 to 15 days, scale 0 to 100, 0 = no effect, 100 = complete control"}, "[8]": {"conditions": "preemergence, 250 g ai/ha, scale 0 to 100, 0 is no effect, 100 is complete control"}, "[9]": {"conditions": "postemergence, 125 g ai/ha, scale 0 to 100, 0 no effect, 100 complete control"}, "[10]": {"conditions": "Preemergence, 16 g ai/ha, scale 0 to 100"}, "[11]": {"conditions": "preemergence, 31 g ai/ha, scale 0 to 100 (0 no effect, 100 complete control), 13 to 15 days"}, "[12]": {"conditions": "preemergence, 62 g ai/ha, 13 to 15 days, scale 0 to 100, 0 = no effect, 100 = complete control"}, "[13]": {"conditions": "preemergence, 125 g ai/ha, scale 0 to 100, 0 is no effect, 100 is complete control"}}, "data": [{"smiles": "CCCc1cc(C(=O)NC2CC2)nn1Cc1cc(C(F)(F)F)nn1C", "note": "[Compound 202]", "values": [{"measurement": "Plant response rating, Rice", "setting": "rice", "result": 30}, {"measurement": "Plant response rating (scale of 0 to 100 where 0 is no effect and 100 is complete control), Lambsquarters", "setting": "lambsquarters; Postemergence", "result": 70}, {"measurement": "Lambsquarters plant response rating", "setting": "lambsquarters", "result": 80}, {"measurement": "Plant response rating, Lambsquarters", "setting": "lambsquarters; [3]", "result": 90}, {"measurement": "Plant response rating, Lambsquarters", "setting": "lambsquarters; [4]", "result": 85}, {"measurement": "Wheat plant response rating", "setting": "wheat [1]; 31 g ai/ha, visual rating, scale 0 to 100 (0 no effect, 100 complete control), 13 to 15 days", "result": 0}, {"measurement": "Wheat plant response rating", "setting": "wheat [1]; 62 g ai/ha, scale 0 to 100 (0 no effect, 100 complete control), 13 to 15 days", "result": 85}, {"measurement": "Plant response rating, Wheat", "setting": "wheat [1]; 125 g ai/ha, 13 to 15 days, scale 0 to 100, 0 = no effect, 100 = complete control", "result": 85}, {"measurement": "Wheat plant response rating", "setting": "wheat [1]; 250 g ai/ha, scale 0 to 100, 0 is no effect, 100 is complete control", "result": 90}, {"measurement": "Ragweed plant response rating", "setting": "ragweed; [5]", "result": 75}, {"measurement": "Ragweed plant response rating", "setting": "ragweed; [6]", "result": 95}, {"measurement": "Plant response rating, Ragweed", "setting": "ragweed; [7]", "result": 95}, {"measurement": "Ragweed plant response rating", "setting": "ragweed; [8]", "result": 100}, {"measurement": "Galium plant response rating", "setting": "galium; [5]", "result": 98}, {"measurement": "Galium plant response rating", "setting": "galium; [6]", "result": 100}, {"measurement": "Plant response rating, Galium", "setting": "galium; [7]", "result": 100}, {"measurement": "Galium plant response rating", "setting": "galium; [8]", "result": 100}, {"measurement": "Wheat plant response rating", "setting": "wheat [2]; Postemergence, 125 g ai/ha, 0 to 100 scale, 0 no effect, 100 complete control", "result": 60}, {"measurement": "Wheat plant response rating", "setting": "wheat [2]; Postemergence, 500 g ai/ha, 0 to 100 scale (0 no effect, 100 complete control)", "result": 80}, {"measurement": "Plant response rating, Sedge, Umbrella", "setting": "sedge, umbrella", "result": 80}, {"measurement": "Corn plant response rating", "setting": "corn; [5]", "result": 5}, {"measurement": "Corn plant response rating", "setting": "corn; [6]", "result": 35}, {"measurement": "Plant response rating, Corn", "setting": "corn; [7]", "result": 60}, {"measurement": "Corn plant response rating", "setting": "corn; [8]", "result": 95}, {"measurement": "Plant response rating (scale of 0 to 100 where 0 is no effect and 100 is complete control), Crabgrass, Large", "setting": "crabgrass, large; Postemergence", "result": 5}, {"measurement": "Crabgrass, Large plant response rating", "setting": "crabgrass, large", "result": 10}, {"measurement": "Plant response rating, Crabgrass, Large", "setting": "crabgrass, large; [3]", "result": 70}, {"measurement": "Plant response rating, Crabgrass, Large", "setting": "crabgrass, large; [4]", "result": 25}, {"measurement": "Plant response rating, Ryegrass, Italian", "setting": "ryegrass, Italian; postemergence, 250 g ai/ha, scale 0 to 100 (0 no effect, 100 complete control)", "result": 5}, {"measurement": "Plant response rating, Ryegrass, Italian", "setting": "ryegrass, Italian; [9]", "result": 5}, {"measurement": "Plant response rating (scale of 0 to 100 where 0 is no effect and 100 is complete control), Kochia", "setting": "kochia; Postemergence", "result": 85}, {"measurement": "Kochia plant response rating", "setting": "kochia", "result": 90}, {"measurement": "Plant response rating, Kochia", "setting": "kochia; [3]", "result": 90}, {"measurement": "Plant response rating, Kochia", "setting": "kochia; [4]", "result": 90}, {"measurement": "Pigweed plant response rating (0 to 100 scale)", "setting": "pigweed; preemergence, 125 g ai/ha, visual injury approx. 10 days after treatment", "result": 100}, {"measurement": "Pigweed plant response rating", "setting": "pigweed; preemergence, 500 g ai/ha, visual injury after approx. 10 days, 0 to 100 scale (0 no effect, 100 complete control)", "result": 100}]}, {"smiles": "CCONC(=O)c1cc(CC)n(Cc2ccnc(C(F)(F)F)c2)n1", "note": "[Compound 77]", "values": [{"measurement": "Plant response rating, Rice", "setting": "rice", "result": 20}, {"measurement": "Plant response rating (scale of 0 to 100), Lambsquarters", "setting": "lambsquarters; Postemergence, 16 g ai/ha", "result": 15}, {"measurement": "Plant response rating (scale of 0 to 100 where 0 is no effect and 100 is complete control), Lambsquarters", "setting": "lambsquarters; Postemergence", "result": 35}, {"measurement": "Lambsquarters plant response rating", "setting": "lambsquarters", "result": 35}, {"measurement": "Plant response rating, Lambsquarters", "setting": "lambsquarters; [4]", "result": 70}, {"measurement": "Plant response rating, Ragweed", "setting": "ragweed; [10]", "result": 10}, {"measurement": "Ragweed plant response rating", "setting": "ragweed; [11]", "result": 35}, {"measurement": "Plant response rating, Ragweed", "setting": "ragweed; [12]", "result": 70}, {"measurement": "Ragweed plant response rating", "setting": "ragweed; [13]", "result": 85}, {"measurement": "Plant response rating, Galium", "setting": "galium; [10]", "result": 0}, {"measurement": "Galium plant response rating", "setting": "galium; [11]", "result": 0}, {"measurement": "Plant response rating, Galium", "setting": "galium; [12]", "result": 5}, {"measurement": "Galium plant response rating", "setting": "galium; [13]", "result": 10}, {"measurement": "Wheat plant response rating", "setting": "wheat [2]; Postemergence, 500 g ai/ha, visual rating after approx. 10 days, 0 to 100 scale (0 no effect, 100 complete control)", "result": 50}, {"measurement": "Wheat plant response rating", "setting": "wheat [2]; postemergence, 125 g ai/ha, about 10 days, visual rating on 0 to 100 scale (0 no effect, 100 complete control)", "result": 40}, {"measurement": "Plant response rating, Sedge, Umbrella", "setting": "sedge, umbrella", "result": 80}, {"measurement": "Plant response rating, Corn", "setting": "corn; [10]", "result": 0}, {"measurement": "Corn plant response rating", "setting": "corn; [11]", "result": 0}, {"measurement": "Plant response rating, Corn", "setting": "corn; [12]", "result": 15}, {"measurement": "Corn plant response rating", "setting": "corn; [13]", "result": 55}, {"measurement": "Plant response rating (scale of 0 to 100), Crabgrass, Large", "setting": "crabgrass, large; Postemergence, 16 g ai/ha", "result": 5}, {"measurement": "Plant response rating (scale of 0 to 100 where 0 is no effect and 100 is complete control), Crabgrass, Large", "setting": "crabgrass, large; Postemergence", "result": 10}, {"measurement": "Crabgrass, Large plant response rating", "setting": "crabgrass, large", "result": 10}, {"measurement": "Plant response rating, Crabgrass, Large", "setting": "crabgrass, large; [4]", "result": 20}, {"measurement": "Plant response rating (scale of 0 to 100), Ryegrass, Italian", "setting": "ryegrass, Italian; Postemergence, 16 g ai/ha", "result": 0}, {"measurement": "Plant response rating (scale of 0 to 100 where 0 is no effect and 100 is complete control), Ryegrass, Italian", "setting": "ryegrass, Italian; Postemergence, 31 g ai/ha, visually evaluated after 13 to 15 days", "result": 5}, {"measurement": "Ryegrass, Italian plant response rating", "setting": "ryegrass, Italian; postemergence, 62 g ai/ha, scale 0 to 100", "result": 5}, {"measurement": "Plant response rating, Ryegrass, Italian", "setting": "ryegrass, Italian; [9]", "result": 5}, {"measurement": "Plant response rating (scale of 0 to 100), Kochia", "setting": "kochia; Postemergence, 16 g ai/ha", "result": 40}, {"measurement": "Plant response rating (scale of 0 to 100 where 0 is no effect and 100 is complete control), Kochia", "setting": "kochia; Postemergence", "result": 40}, {"measurement": "Kochia plant response rating", "setting": "kochia", "result": 45}, {"measurement": "Plant response rating, Kochia", "setting": "kochia; [4]", "result": 70}, {"measurement": "Pigweed plant response rating", "setting": "pigweed; Preemergence, 500 g ai/ha, 0 to 100 scale, 0 no effect, 100 complete control", "result": 100}, {"measurement": "Pigweed plant response rating", "setting": "pigweed; preemergence, 125 g ai/ha, visual injury, 0 to 100 scale, approx. 10 days", "result": 100}]}]}
